Laboratory results: the supplement of paper PMC11061612

Tests used:
Experiment in all cases: Bliss excess, mean over the matrix (fraction); higher = more synergy
[1] = system: NCI-H1703 (Squamous Cell Lung Carcinoma)
How it was run: (§1)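 Bliss excess equals the observed combination effect minus the expected value EA + EB − EA·EB, where EA and EB are the effects of each agent alone. Combination Emax is the second-highest inhibition within the matrix. Inhibition was scaled from CellTiter-Glo 2.0 luminescence, with 0 set by vehicle wells and 1 by blank wells, after 72 hours of two-drug dosing of cells plated in 1536-well plates.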

[2] = system: EPLC-272H (Other Solid Carcinomas)
How it was run: as §1

HCC70 (Breast Carcinoma) = system: HCC70 (Breast Carcinoma)
How it was run: as §1

[3] = system: NCI-H1651 (Lung Adenocarcinoma)
How it was run: as §1

KP-N-YN (Neuroblastoma) = system: KP-N-YN (Neuroblastoma)
How it was run: as §1

[4] = system: LS-411N (Colorectal Carcinoma)
How it was run: as §1

[5] = system: JHU-022 (Oral Cavity Carcinoma)
How it was run: as §1

RH-41 (Rhabdomyosarcoma) = system: RH-41 (Rhabdomyosarcoma)
How it was run: as §1

NB13 (Neuroblastoma) = system: NB13 (Neuroblastoma)
How it was run: as §1

[6] = system: ESO26 (Esophageal Adenocarcinoma)
How it was run: as §1

[7] = system: JHH-2 (Hepatocellular Carcinoma)
How it was run: as §1

EW-7 (Ewing's Sarcoma) = system: EW-7 (Ewing's Sarcoma)
How it was run: as §1

COLO-792 (Melanoma) = system: COLO-792 (Melanoma)
How it was run: as §1

[8] = system: NCI-H441 (Lung Adenocarcinoma)
How it was run: as §1

[9] = system: SK-HEP-1 (Hepatocellular Carcinoma)
How it was run: as §1

[10] = system: DMS-53 (Small Cell Lung Carcinoma)
How it was run: as §1

[11] = system: OACp4C (Esophageal Adenocarcinoma)
How it was run: as §1

IM-9 (Non-Cancerous) = system: IM-9 (Non-Cancerous)
How it was run: as §1

PEO1 (Ovarian Carcinoma) = system: PEO1 (Ovarian Carcinoma)
How it was run: as §1

[12] = system: Jurkat (T-Lymphoblastic Leukemia)
How it was run: as §1

Structure (SMILES) | Bliss excess [1] | Bliss excess [2] | Bliss excess (HCC70 (Breast Carcinoma)) | Bliss excess [3] | Bliss excess (KP-N-YN (Neuroblastoma)) | Bliss excess [4] | Bliss excess [5] | Bliss excess (RH-41 (Rhabdomyosarcoma)) | Bliss excess (NB13 (Neuroblastoma)) | Bliss excess [6] | Bliss excess [7] | Bliss excess (EW-7 (Ewing's Sarcoma)) | Bliss excess (COLO-792 (Melanoma)) | Bliss excess [8] | Bliss excess [9] | Bliss excess [10] | Bliss excess [11] | Bliss excess (IM-9 (Non-Cancerous)) | Bliss excess (PEO1 (Ovarian Carcinoma)) | Bliss excess [12]
Cc1c2c(nn1C)CSCc1cc(n(C)n1)CSc1cc(c3ccccc3c1)OCCCc1c(C(=O)O)n(C)c3c-2c(Cl)ccc13 [AZD5991] + CN(C)CCCOc1ccc(-c2ccc3ncc4c(c3c2)n(C2CCOCC2)c(=O)n4C)cn1 [AZD0156] (first compound max 1 µM, 7x7, partner max 1 µM) | -0.0272 | 0.0047 | -0.0028 | 0.0042 | -0.0752 | -0.0058 | -0.0079 | 0.0044 | 0.0007 | 0.008 | 0.0012 | 0.0313 | 0.0191 | 0.0031 | 0.0098 | 0.0854 | 0.0162 | -0.0637 | -0.0155 | -0.0219
CCc1c2c(nc3ccc(O)cc13)-c1cc3c(c(=O)n1C2)COC(=O)[C@]3(O)CC [SN-38] + CN(C)CCCOc1ccc(-c2ccc3ncc4c(c3c2)n(C2CCOCC2)c(=O)n4C)cn1 [AZD0156] (first compound max 0.3 µM, 7x7, partner max 1 µM) | 0.0117 | 0.0536 | 0.0152 | -0.021 | 0.0238 | 0.0079 | -0.0034 | -0.0913 | 0.0313 | -0.0042 | 0.0204 | 0.0647 | -0.011 | -0.0052 | 0.0105 | -0.0288 | 0.0666 | 0.0891 | -0.0037 | 0.059
COc1cccc(OCCCN)c1-c1cc(Nc2cnc(C#N)cn2)n[nH]1 [Prexasertib] + C[C@@H]1COCCN1C2=NC(=NC(=C2)C3(CC3)[S@](=N)(=O)C)C4=C5C=CNC5=NC=C4 [AZD6738] (first compound max 1 µM, 7x7, partner max 10 µM) | 0.0047 | -0.0656 | -0.0133 | -0.0439 | -0.0048 | -0.0349 | -0.0238 | -0.0423 | -0.0603 | -0.0681 | -0.0136 | -0.0437 | -0.0376 | 0.0009 | 0.0447 | 0.032 | -0.0882 | -0.003 | -0.0083 | -0.0076
CC(=O)c1c(C)c2cnc(Nc3ccc(N4CCNCC4)cn3)nc2n(C2CCCC2)c1=O [Palbociclib] + Cc1c2c(nn1C)CSCc1cc(n(C)n1)CSc1cc(c3ccccc3c1)OCCCc1c(C(=O)O)n(C)c3c-2c(Cl)ccc13 [AZD5991] (first compound max 10 µM, 7x7, partner max 1 µM) | -0.0636 | -0.0979 | -0.0171 | -0.0239 | 0.0562 | -0.0397 | -0.0971 | -0.0028 | 0.0041 | -0.0467 | -0.0475 | -0.0005 | -0.105 | -0.0362 | 0.0434 | 0.044 | -0.064 | 0.0229 | -0.0483 | -0.083
COc1cccc(OCCCN)c1-c1cc(Nc2cnc(C#N)cn2)n[nH]1 [Prexasertib] + CCc1c2c(nc3ccc(O)cc13)-c1cc3c(c(=O)n1C2)COC(=O)[C@]3(O)CC [SN-38] (first compound max 1 µM, 7x7, partner max 0.3 µM) | -0.0374 | -0.0229 | -0.0259 | -0.0551 | -0.0158 | 0.0331 | -0.112 | 0.0029 | 0.0263 | 0.0483 | 0.0002 | -0.0713 | 0.087 | -0.0772 | -0.0339 | -0.0377 | 0.0186 | 0.0077 | -0.0015 | -0.005
CN(C)CCCOc1ccc(-c2ccc3ncc4c(c3c2)n(C2CCOCC2)c(=O)n4C)cn1 [AZD0156] + C=CCn1c(=O)c2cnc(Nc3ccc(N4CCN(C)CC4)cc3)nc2n1-c1cccc(C(C)(C)O)n1 [AZD1775] (first compound max 1 µM, partner max 1 µM) | -0.051 | -0.0105 | -0.0682 | -0.0046 | -0.0161 | -0.0042 | -0.0446 | -0.0175 | 0.0215 | -0.0322 | -0.0233 | 0.039 | -0.017 | -0.0963 | -0.0574 | -0.028 | -0.0245 | 0.007 | -0.0442 | 0.0794
Cn1cnc2c(F)c(Nc3ccc(Br)cc3Cl)c(C(=O)NOCCO)cc21 [Selumetinib] + CC(C)n1c(=O)n(C)c2cnc3cc(F)c(-c4ccc(OCCCN5CCCCC5)nc4)cc3c21 [AZD1390] (first compound max 10 µM, 7x7, partner max 0.3 µM) | -0.0158 | -0.0442 | 0.0225 | -0.0305 | -0.0171 | -0.0107 | 0.02 | -0.0082 | -0.0532 | -0.0471 | -0.0357 | -0.0117 | -0.0088 | -0.0394 | -0.0043 | -0.0267 | 0.0048 | -0.0603 | -0.0118 | -0.0321
CC1(C)CCC(CN2CCN(c3ccc(C(=O)NS(=O)(=O)c4ccc(NCC5CCOCC5)c([N+](=O)[O-])c4)c(Oc4cnc5[nH]ccc5c4)c3)CC2)=C(c2ccc(Cl)cc2)C1 [Venetoclax] + Cn1cnc2c(F)c(Nc3ccc(Br)cc3Cl)c(C(=O)NOCCO)cc21 [Selumetinib] (first compound max 1 µM, 7x7, partner max 3 µM) | 0.0061 | -0.0184 | 0.0707 | -0.0367 | -0.0102 | -0.0148 | -0.0181 | 0.0237 | -0.0837 | -0.0133 | 0.016 | -0.0058 | 0.0083 | -0.043 | -0.0378 | 0.0543 | 0.0303 | 0.111 | -0.0452 | 0.0054
CCN(CCO)CCCOc1ccc2c(Nc3cc(CC(=O)Nc4cccc(F)c4)[nH]n3)ncnc2c1 [AZD2811] + C=CCn1c(=O)c2cnc(Nc3ccc(N4CCN(C)CC4)cc3)nc2n1-c1cccc(C(C)(C)O)n1 [AZD1775] (first compound max 1 µM, partner max 1 µM) | -0.0453 | -0.0341 | -0.0112 | -0.0268 | -0.027 | -0.0174 | -0.0217 | 0.0118 | 0.0265 | -0.0247 | 0.0198 | 0.0623 | 0.043 | -0.0518 | 0.0336 | -0.0378 | -0.0436 | -0.0297 | -0.0025 | 0.0809
CC1(C)CCC(CN2CCN(c3ccc(C(=O)NS(=O)(=O)c4ccc(NCC5CCOCC5)c([N+](=O)[O-])c4)c(Oc4cnc5[nH]ccc5c4)c3)CC2)=C(c2ccc(Cl)cc2)C1 [Venetoclax] + C[C@@H]1COCCN1C2=NC(=NC(=C2)C3(CC3)[S@](=N)(=O)C)C4=C5C=CNC5=NC=C4 [AZD6738] (first compound max 1 µM, 7x7, partner max 10 µM) | -0.0216 | -0.0233 | -0.0528 | -0.0123 | -0.0619 | -0.0311 | -0.007 | 0.0355 | 0.0633 | -0.0101 | -0.019 | -0.037 | 0.03 | -0.0483 | -0.0342 | 0.119 | -0.0418 | 0.0201 | -0.0038 | 0.0361
COc1cccc(OCCCN)c1-c1cc(Nc2cnc(C#N)cn2)n[nH]1 [Prexasertib] + C=CCn1c(=O)c2cnc(Nc3ccc(N4CCN(C)CC4)cc3)nc2n1-c1cccc(C(C)(C)O)n1 [AZD1775] (first compound max 1 µM, partner max 1 µM) | 0.066 | -0.0284 | 0.0723 | 0.0428 | 0.0385 | -0.0017 | 0.0861 | 0.0677 | -0.0347 | 0.0278 | 0.0869 | 0.0157 | 0.0236 | -0.0383 | 0.0775 | 0.0883 | -0.0189 | 0.0644 | 0.0825 | 0.0561
CN(C)CCCOc1ccc(-c2ccc3ncc4c(c3c2)n(C2CCOCC2)c(=O)n4C)cn1 [AZD0156] + CCN(CCO)CCCOc1ccc2c(Nc3cc(CC(=O)Nc4cccc(F)c4)[nH]n3)ncnc2c1 [AZD2811] (first compound max 1 µM, 7x7, partner max 1 µM) | 0.0059 | 0.0394 | -0.0184 | -0.0167 | 0.0037 | -0.0168 | -0.0143 | 0.0369 | 0.0458 | -0.037 | -0.031 | 0.0718 | 0.0167 | -0.0776 | -0.0194 | -0.0251 | 0.0091 | -0.0416 | -0.0421 | 0.0543
C=CCn1c(=O)c2cnc(Nc3ccc(N4CCN(C)CC4)cc3)nc2n1-c1cccc(C(C)(C)O)n1 [AZD1775] + C[C@@H]1COCCN1C2=NC(=NC(=C2)C3(CC3)[S@](=N)(=O)C)C4=C5C=CNC5=NC=C4 [AZD6738] (first compound max 1 µM, partner max 10 µM) | 0.0263 | 0.0036 | -0.0312 | -0.0105 | -0.005 | 0.0732 | -0.0276 | 0.0493 | 0.0101 | 0.0102 | -0.0817 | -0.0435 | 0.0941 | -0.0834 | -0.0271 | 0.0115 | -0.028 | 0.0274 | -0.0234 | 0.038
Cc1c2c(nn1C)CSCc1cc(n(C)n1)CSc1cc(c3ccccc3c1)OCCCc1c(C(=O)O)n(C)c3c-2c(Cl)ccc13 [AZD5991] + C[C@@H](Nc1cc(F)cc(F)c1)c1cc(C(=O)N(C)C)cc2c(=O)cc(N3CCOCC3)oc12 [AZD8186] (first compound max 1 µM, 7x7, partner max 3 µM) | -0.0012 | 0.0238 | 0.0937 | -0.0293 | -0.0498 | 0.0064 | -0.0211 | -0.0114 | 0.0039 | -0.0171 | -0.0261 | -0.0178 | 0.0218 | -0.0189 | 0.0175 | 0.0267 | 0.0153 | -0.0376 | -0.008 | -0.0077
CC1(C)CCC(CN2CCN(c3ccc(C(=O)NS(=O)(=O)c4ccc(NCC5CCOCC5)c([N+](=O)[O-])c4)c(Oc4cnc5[nH]ccc5c4)c3)CC2)=C(c2ccc(Cl)cc2)C1 [Venetoclax] + Cc1cc2ncnn2cc1Nc1ncc2c(n1)n(C1CCOCC1)c(=O)n2C [AZD7648] (first compound max 1 µM, 7x7, partner max 10 µM) | 0.0396 | -0.0656 | -0.0423 | -0.0342 | -0.0085 | -0.0184 | -0.0392 | -0.0007 | 0.0559 | -0.0336 | -0.069 | -0.0345 | -0.0139 | -0.0437 | -0.0387 | 0.11 | -0.0027 | 0.0403 | -0.033 | 0.0164
